Measured values from ChEMBL document CHEMBL6074700, “Furan- and Furopyrimidine-Based Derivatives: Synthesis, VEGFR-2 Inhibition, and In Vitro Cytotoxicity” (ACS Med Chem Lett, 2024).
Activity calls are given as the source filed them. The calls are words filed in the database; no cut-off is given here.

Tests used:
HT-29 [1] = experiment: Induction of cell cycle arrest in human HT-29 cells assessed as accumulation of cells at G2/M phase at IC50 measured after 24 hrs by flow cytometry; type: functional, cell-based
A549 = experiment: Antiproliferative activity against human A549 cells incubated for 72 hrs; conditions: A549, 72 h
MCF7 = experiment: Antiproliferative activity against human MCF7 cells incubated for 72 hrs; conditions: MCF7, 72 h
WI-38 = experiment: Antiproliferative activity against human WI-38 cells incubated for 72 hrs; conditions: WI-38, 72 h
HT-29 [2] = experiment: Antiproliferative activity against human HT-29 cells incubated for 72 hrs; conditions: HT-29, 72 h
HT-29 [3] = experiment: Induction of apoptosis in human HT-29 cells assessed as increase in total apoptotic cells measured after 24 hrs by flow cytometry; type: functional, cell-based
HepG2 = experiment: Antiproliferative activity against human HepG2 cells incubated for 72 hrs; conditions: HepG2, 72 h
PC-3 = experiment: Antiproliferative activity against human PC-3 cells incubated for 72 hrs; conditions: PC-3, 72 h
[4] = biological target: Vascular endothelial growth factor receptor 2 (Homo sapiens, UniProt P35968); experiment: Inhibition of VEGFR2 (unknown origin)
HUVEC = experiment: Cytotoxicity against HUVEC cells; conditions: Homo sapiens

Chain of Vascular endothelial growth factor receptor 2 (P35968 whole entry): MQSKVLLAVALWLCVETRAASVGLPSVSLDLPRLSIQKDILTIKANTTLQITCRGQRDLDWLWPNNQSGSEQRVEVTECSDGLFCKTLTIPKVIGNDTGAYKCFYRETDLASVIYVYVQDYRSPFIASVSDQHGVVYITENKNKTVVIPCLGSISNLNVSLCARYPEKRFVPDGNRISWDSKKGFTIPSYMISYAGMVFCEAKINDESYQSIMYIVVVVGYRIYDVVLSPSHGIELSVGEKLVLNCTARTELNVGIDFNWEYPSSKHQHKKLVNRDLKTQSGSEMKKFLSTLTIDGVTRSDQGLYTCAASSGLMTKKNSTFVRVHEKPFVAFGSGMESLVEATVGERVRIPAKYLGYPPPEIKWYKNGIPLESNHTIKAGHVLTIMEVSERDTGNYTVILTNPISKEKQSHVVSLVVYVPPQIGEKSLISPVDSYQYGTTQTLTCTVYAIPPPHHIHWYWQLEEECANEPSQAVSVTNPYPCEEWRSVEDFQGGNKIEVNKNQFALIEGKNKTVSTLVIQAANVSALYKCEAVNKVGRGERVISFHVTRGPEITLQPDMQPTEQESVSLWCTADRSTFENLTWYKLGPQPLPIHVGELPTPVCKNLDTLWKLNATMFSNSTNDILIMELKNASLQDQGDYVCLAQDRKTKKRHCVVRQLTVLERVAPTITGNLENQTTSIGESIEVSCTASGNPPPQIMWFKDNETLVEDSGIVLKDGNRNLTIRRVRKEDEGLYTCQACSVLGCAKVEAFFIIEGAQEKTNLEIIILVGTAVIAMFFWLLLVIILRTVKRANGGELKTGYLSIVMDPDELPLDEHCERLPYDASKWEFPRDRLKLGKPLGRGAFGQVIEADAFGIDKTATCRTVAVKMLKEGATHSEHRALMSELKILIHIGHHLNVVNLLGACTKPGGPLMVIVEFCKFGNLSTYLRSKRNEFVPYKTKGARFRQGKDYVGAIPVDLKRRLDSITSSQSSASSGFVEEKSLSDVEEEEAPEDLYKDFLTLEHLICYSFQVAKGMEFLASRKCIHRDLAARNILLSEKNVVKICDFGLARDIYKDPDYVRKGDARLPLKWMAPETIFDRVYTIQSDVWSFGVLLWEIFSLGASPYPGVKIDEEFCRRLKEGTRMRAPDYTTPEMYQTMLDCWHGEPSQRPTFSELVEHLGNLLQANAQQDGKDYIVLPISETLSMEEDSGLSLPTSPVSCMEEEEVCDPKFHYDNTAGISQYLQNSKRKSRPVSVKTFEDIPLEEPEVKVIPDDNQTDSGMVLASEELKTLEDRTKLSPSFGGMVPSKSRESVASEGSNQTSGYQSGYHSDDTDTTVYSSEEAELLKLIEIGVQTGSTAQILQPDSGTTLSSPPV

Row | SMILES | IC50 (A549) | IC50 (MCF7) | IC50 (WI-38) | IC50 (HT-29 [2]) | IC50 (HepG2) | IC50 (PC-3) | other results
1 | N#Cc1c(N=CNc2ccc(Cl)cc2)oc(-c2ccccc2)c1-c1ccccc1 | 6.66 µM | 6.72 µM | 30 µM | 8.51 µM | 7.28 µM | 14.5 µM | Activity (HT-29 [1]): Active; Activity (HT-29 [3]): Active
2 | Cc1ccc(-c2nc3c4c(-c5ccccc5)c(-c5ccccc5)oc4ncn3n2)cc1 | – | – | – | – | – | – | IC50 [4]: 0.125 µM
3 | N=c1c2cc(-c3ccccc3)oc2ncn1/N=C/c1ccc(Br)cc1 | – | – | – | – | – | – | IC50 (HUVEC): 61.2 µM
4 | COc1ccc(-c2nc3c4cc(-c5ccc(OC)cc5)oc4ncn3n2)cc1 | – | – | – | – | – | – | IC50 (HUVEC): 22.6 µM
5 | N#Cc1c(N=CNc2ccc(Br)cc2)oc(-c2ccccc2)c1-c1ccccc1 | 10.1 µM | 9.06 µM | 27.4 µM | 12.1 µM | 11.2 µM | 23.2 µM | –
6 | O=C(Nc1ncnc2oc(-c3ccccc3)c(-c3ccccc3)c12)c1ccc([N+](=O)[O-])cc1 | 14.5 µM | 11.4 µM | 26.5 µM | 21.4 µM | 13.1 µM | 22.1 µM | –
7 | Cc1cccc(-c2nc3c4c(-c5ccccc5)c(-c5ccccc5)oc4ncn3n2)c1 | – | – | – | – | – | – | IC50 [4]: 0.121 µM
